Data on 7 compounds can be found in ChEMBL document CHEMBL5365543, “Benzamidine Conjugation Converts Expelled Potential Active Agents into Antifungals against Drug-Resistant Fungi” (J Med Chem, 2023).

The IC50 is the concentration that gives 50% inhibition.

≈ marks a conversion by molar mass, not a printed value. Calls of active or inactive are those of the source. No cut-off for these calls is given here.

Series [1] concerns Candida albicans. The experiment in a line: Antifungal activity against clinical isolate Candida albicans SCMRRIR34MPG2A harbouring MRR1 mutation overexpressing efflux pump MdrL assessed as inhibition of fungal growth measured after 24 hrs by CLSI based microtiter plate analysis. The series is classed as functional.
Series [2] concerns Candida albicans. The series can be described thus: Antifungal activity against clinical isolate Candida albicans YEM15 overexpressing efflux pump CdrL and Cdr2 assessed as inhibition of fungal growth measured after 24 hrs by CLSI based microtiter plate analysis. The series is classed as functional.
Series [3] has as its system Candida albicans. The experiment in a line: Antifungal activity against clinical isolate fluconazole-resistant Candida albicans CA632 assessed as inhibition of fungal growth measured after 24 hrs by CLSI based microtiter plate analysis. Type of series: functional.
The nature of series [4]: Drug accumulation in wild-type Candida albicans SC5314 at 50 microg/ml incubated for 3 hrs by HPLC analysis. Type of series: ADME. The note with it: dose 50 µg/ml.
Series [5] concerns Candida albicans. The experiment in a line: Antifungal activity against wild-type Candida albicans SC5314 assessed as inhibition of fungal growth measured after 24 hrs by CLSI based microtiter plate analysis. Type of series: functional.
The test system of series [6] is Candida albicans. The experiment in a line: Antifungal activity against clinical isolate Candida albicans YEM13 overexpressing efflux pump MdrL assessed as inhibition of fungal growth measured after 24 hrs by CLSI based microtiter plate analysis. Type of series: functional.
Series [7] has as its system Candida albicans. The experiment in a line: Antifungal activity against clinical isolate fluconazole-resistant Candida albicans Gu5 harbouring TAC1 mutation overexpressing efflux pump CdrL and Cdr2 assessed as inhibition of fungal growth measured after 24 hrs by CLSI based microtiter plate analysis. Type of series: functional.
The subject of a further series is Candida tropicalis. The series can be described thus: Antifungal activity against clinical isolate fluconazole-resistant Candida tropicalis CT10 assessed as inhibition of fungal growth measured after 24 hrs by CLSI based microtiter plate analysis. Type of series: functional.
The next series relates to Nakaseomyces glabratus. The experiment in a line: Antifungal activity against clinical isolate fluconazole-resistant Candida glabrata CG2 assessed as inhibition of fungal growth measured after 24 hrs by CLSI based microtiter plate analysis. The series is classed as functional.
The test system of series [8] is [Candida] auris. The series can be described thus: Antifungal activity against clinical isolate fluconazole-resistant Candida auris CBS12774 assessed as inhibition of fungal growth measured after 24 hrs by CLSI based microtiter plate analysis. Type of series: functional. The note with it: Candidozyma auris.
Series [9] has as its system Candida albicans. The experiment in a line: Antifungal activity against clinical isolate fluconazole-resistant Candida albicans G5 harbouring MRR1 mutation overexpressing MdrL assessed as inhibition of fungal growth measured after 24 hrs by CLSI based microtiter plate analysis. The series is classed as functional.
The next series relates to Cryptococcus neoformans. The experiment in a line: Antifungal activity against clinical isolate fluconazole-resistant Cryptococcus neoformans H99 assessed as inhibition of fungal growth measured after 24 hrs by CLSI based microtiter plate analysis. Type of series: functional.
The subject of series [10] is Candida albicans. The series can be described thus: Antifungal activity against clinical isolate fluconazole-resistant Candida albicans DSY296 harbouring TAC1 mutation overexpressing efflux pump CdrL and Cdr2 assessed as inhibition of fungal growth measured after 24 hrs by CLSI based microtiter plate analysis. The series is classed as functional.
For series [11], the system named is [Candida] auris. The experiment in a line: Antifungal activity against clinical isolate fluconazole-resistant Candida auris CBS12776 assessed as inhibition of fungal growth measured after 24 hrs by CLSI based microtiter plate analysis. The series is classed as functional. The note with it: Candidozyma auris.
In series [12] the test system is Candida albicans. The series can be described thus: Antifungal activity against clinical isolate Candida albicans SCUPC2R14MPG2A harbouring UPC2 mutation overexpressing […] Erg11 assessed as inhibition of fungal growth measured after 24 hrs by CLSI based microtiter plate analysis. Type of series: functional.
The nature of series [13]: Cytotoxicity against human HBE cells assessed as inhibition of cell growth measured after 4 hrs by MTT assay. Type of series: toxicity, cell-based. In general terms: Tetrazolium dyes change colour on reduction, which living cells bring about.
Series [14] is described as follows: Induction of hemolysis in mouse RBC cells at 2 to 32 microg/ml incubated for 60 mins by absorbance based analysis. Type of series: toxicity, cell-based, Erythrocyte. The note with it: red blood cells (erythrocytes), at 2 to 32 µg/mL, dose 2-32 µg/ml, read-out: Activity.
Series [15] deals with Candida albicans. The experiment in a line: microbe, parasite or virus in culture. The series is classed as functional. The note with it: DSY654, time 24 hrs.
Description: Antifungal activity against efflux pump-deficient Candida albicans DSY654 assessed as inhibition of fungal growth measured after 24 hrs by CLSI based microtiter plate analysis
The nature of series [16]: Cytotoxicity against mouse L929 cells assessed as inhibition of cell growth measured after 4 hrs by MTT assay. Type of series: toxicity, cell-based.
Where [17] appears, read: Candida albicans, SC5314, 24 h, read-out: MIC80.

With `N=C(N)c1ccc(OCCCN2CCC(=C3c4ccc(Cl)cc4CCc4cccnc43)CC2)cc1`, the MIC80 with Candida albicans [1] worked out at 32 µg/mL (≈ 65.7 µM); in the series on Candida albicans [2], 32 µg/mL (≈ 65.7 µM); with Candida albicans [3], 32 µg/mL (≈ 65.7 µM); in the series on Candida albicans [5] (setting [17]), 32 µg/mL (≈ 65.7 µM); in the series on Candida albicans [6], 32 µg/mL (≈ 65.7 µM); in the series on Candida albicans [7], 64 µg/mL (≈ 131 µM). Besides, the MIC80 with Candida tropicalis was determined as 32 µg/mL (≈ 65.7 µM); in the series with Nakaseomyces glabratus it was 64 µg/mL (≈ 131 µM); in series [Candida] auris [8] it was 64 µg/mL (≈ 131 µM); in the series with Candida albicans [9] it was 32 µg/mL (≈ 65.7 µM); with Cryptococcus neoformans it was 16 µg/mL (≈ 32.9 µM); with Candida albicans [10], 64 µg/mL (≈ 131 µM). The MIC80 in [Candida] auris [11] turned out to be 64 µg/mL (≈ 131 µM); in the series on Candida albicans [12], 32 µg/mL (≈ 65.7 µM). The Drug uptake result in [4] is “Active”. The MIC result in the series on Candida albicans [5] was “inactive”.
For the compound `CCOC(=O)C1=C(COCCNCCCOc2ccc(C(=N)N)cc2)NC(C)=C(C(=O)OC)C1c1ccccc1Cl` (centres undefined), the MIC80 is 8 µg/mL (≈ 13.7 µM) in the series with Candida albicans [1]; 4 µg/mL (≈ 6.84 µM) in the series with Candida albicans [2]; 4 µg/mL (≈ 6.84 µM) in the series on Candida albicans [3]; 4 µg/mL (≈ 6.84 µM) with Candida albicans [5] (setting [17]); 4 µg/mL (≈ 6.84 µM) in the series on Candida albicans [6]; 4 µg/mL (≈ 6.84 µM) in the series with Candida albicans [7]. For the same compound, the MIC80 in the series on Candida tropicalis stood at 4 µg/mL (≈ 6.84 µM); with Nakaseomyces glabratus, 8 µg/mL (≈ 13.7 µM); in series [Candida] auris [8], 8 µg/mL (≈ 13.7 µM); in the series on Candida albicans [9], 4 µg/mL (≈ 6.84 µM); in the series on Cryptococcus neoformans, 8 µg/mL (≈ 13.7 µM); with Candida albicans [10], 8 µg/mL (≈ 13.7 µM). In addition, the MIC80 was determined as 8 µg/mL (≈ 13.7 µM) in series [Candida] auris [11] and 4 µg/mL (≈ 6.84 µM) in the series on Candida albicans [12]. For the same compound, in series [4], the Drug uptake entry is recorded as “Active”. In the series on Candida albicans [5], the MIC entry is “inactive”.
Consider `CC/C(=C(/CC)c1ccc(OCCCOc2ccc(C(=N)N)cc2)cc1)c1ccc(O)cc1`, for which the MIC80 in the series with Candida albicans [1], with Candida albicans [2], with Candida albicans [3], with Candida albicans [5] (setting [17]), with Candida albicans [6] and in the series with Candida albicans [7] was 4 µg/mL (≈ 9 µM) throughout. For the same compound, the MIC80 in the series with Candida tropicalis was 4 µg/mL (≈ 9 µM); in the series on Nakaseomyces glabratus, 8 µg/mL (≈ 18 µM); in series [Candida] auris [8], 4 µg/mL (≈ 9 µM); in the series with Candida albicans [9] it was 4 µg/mL (≈ 9 µM); in the series with Cryptococcus neoformans, 8 µg/mL (≈ 18 µM); with Candida albicans [10] it was 4 µg/mL (≈ 9 µM). In addition, the MIC80 (in [Candida] auris [11]; with Candida albicans [12]) was 4 µg/mL (≈ 9 µM) throughout. Further, the Drug uptake result in series [4] is “Active”. Also, the MIC entry with Candida albicans [5] was “inactive”.
In the case of `C=C1C[C@@]23CC[C@H]4[C@@](C)(CCC[C@@]4(C)C(=O)OCCCn4c(CC)[n+](C)c5ccccc54)[C@@H]2CC[C@]1(O)C3.[I-]`, the IC50 at 4 h in series [13] is > 32 µg/mL; in series [16], 16.5 µg/mL. Moreover, the MIC80 in the series with Candida albicans [5] (Candida albicans, SC5314, read-out: MIC80) was 16 µg/mL; in the series on Candida albicans [15] it was 8 µg/mL. Besides, in series [14], the hemolysis at 1 h is < 2%.
Take `C=C1C(=O)[C@@]23CC[C@H]4[C@@](C)(CCC[C@@]4(C)C(=O)OCCCOc4ccc(C(=N)N)cc4)[C@@H]2CC[C@]1(O)C3`: the MIC80 in the series with Candida albicans [1] is 8 µg/mL (≈ 15.7 µM); in the series on Candida albicans [2] it was 4 µg/mL (≈ 7.86 µM); in the series with Candida albicans [3], 4 µg/mL (≈ 7.86 µM); in the series with Candida albicans [5] (setting [17]) it was 4 µg/mL (≈ 7.86 µM); in the series with Candida albicans [6], 4 µg/mL (≈ 7.86 µM); in the series on Candida albicans [7], 8 µg/mL (≈ 15.7 µM). Besides, the MIC80 in the series with Candida tropicalis came out at 4 µg/mL (≈ 7.86 µM); in the series on Nakaseomyces glabratus, 8 µg/mL (≈ 15.7 µM); in [Candida] auris [8] it was 8 µg/mL (≈ 15.7 µM); in the series on Candida albicans [9], 4 µg/mL (≈ 7.86 µM); in the series on Cryptococcus neoformans, 8 µg/mL (≈ 15.7 µM); with Candida albicans [10] it was 4 µg/mL (≈ 7.86 µM). In addition, the MIC80 in series [Candida] auris [11] was determined as 8 µg/mL (≈ 15.7 µM); with Candida albicans [12], 4 µg/mL (≈ 7.86 µM). Further, the Drug uptake entry in [4] is “Active”.
On to `C=C1C[C@@]23CC[C@H]4[C@@](C)(CCC[C@@]4(C)C(=O)OCCCOc4ccc(C(=N)N)cc4)[C@@H]2CC[C@]1(O)C3`, for which the MIC80 was determined as 8 µg/mL (≈ 16.2 µM) in the series on Candida albicans [1]; 8 µg/mL (≈ 16.2 µM) in the series on Candida albicans [2]; 8 µg/mL (≈ 16.2 µM) with Candida albicans [3]; 8 µg/mL (≈ 16.2 µM) in the series with Candida albicans [5] (24 h); 4 µg/mL (≈ 8.09 µM) with Candida albicans [5] (setting [17]); 8 µg/mL (≈ 16.2 µM) in the series with Candida albicans [6]. The MIC80 was 8 µg/mL (≈ 16.2 µM) in the series with Candida albicans [7]; 8 µg/mL (≈ 16.2 µM) in the series with Candida tropicalis; 8 µg/mL (≈ 16.2 µM) with Nakaseomyces glabratus; 16 µg/mL (≈ 32.3 µM) in series [Candida] auris [8]; 8 µg/mL (≈ 16.2 µM) in the series on Candida albicans [9]; 16 µg/mL (≈ 32.3 µM) in the series on Cryptococcus neoformans. Further, the MIC80 in the series on Candida albicans [10] was 8 µg/mL (≈ 16.2 µM); in series [Candida] auris [11], 16 µg/mL (≈ 32.3 µM); with Candida albicans [15] it was 2 µg/mL (≈ 4.04 µM); in the series on Candida albicans [12] it was 8 µg/mL (≈ 16.2 µM). For the same compound, the Drug uptake entry in series [4] is given as “Active”. Also, the 50% inhibitory concentration (IC50) at 4 h in series [13] was > 32 µg/mL; in [16] it was 23.6 µg/mL (≈ 47.7 µM). Besides, in [14], the hemolysis at 1 h is < 2%.
Regarding `C=CCc1ccc(OCCCOc2ccc(C(=N)N)cc2)c(-c2ccc(O)c(CC=C)c2)c1`, the MIC80 in the series with Candida albicans [1], in the series with Candida albicans [2], with Candida albicans [3], in the series with Candida albicans [5] (setting [17]), with Candida albicans [6] and in the series with Candida albicans [7] was 8 µg/mL (≈ 18.1 µM) in each case. Further, the MIC80 came to 16 µg/mL (≈ 36.2 µM) in the series with Candida tropicalis; 16 µg/mL (≈ 36.2 µM) in the series with Nakaseomyces glabratus; 8 µg/mL (≈ 18.1 µM) in series [Candida] auris [8]; 8 µg/mL (≈ 18.1 µM) with Candida albicans [9]; 8 µg/mL (≈ 18.1 µM) in the series on Cryptococcus neoformans; 8 µg/mL (≈ 18.1 µM) in the series on Candida albicans [10]. Further, the MIC80 was found to be 16 µg/mL (≈ 36.2 µM) in series [Candida] auris [11] and 8 µg/mL (≈ 18.1 µM) with Candida albicans [12]. Also, in series [4], the Drug uptake result is listed as “Active”. In addition, the MIC entry in the series with Candida albicans [5] is “inactive”.
